From patent US20230382925A1, “MODULATORS OF CYSTIC FIBROSIS TRANSMEMBRANE CONDUCTANCE REGULATOR” (VERTEX PHARMACEUTICALS INCORPORATED, priority 2020, published 2023)

Assays:
[1] = target: T1, CFTR (Homo sapiens, UniProt P13569); assay: Membrane Potential Dye, Enteroid Assay A; assay type: cell-based; details: for EC50: read-out: Ent. A EC50
Outline: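 Primary human intestinal enteroid cells exposed to compound for 18–24 hours at 37 °C, then loaded 25 min with methyl oxonol membrane potential dye plus CaCC inhibitors. Chloride transport triggered in chloride-free buffer with 10 μM forskolin, 100 μM IBMX and 300 nM Compound III, fluorescence read 15 min; % Activity relative to a triple-combination corrector/potentiator control.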

[2] = target: T1, CFTR; assay: Membrane Potential Dye, Enteroid Assay B; assay type: cell-based; details: for EC50: read-out: Ent. B EC50
Outline: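 Human intestinal enteroid cells exposed to compound 18-24 h at 37 °C, then loaded with methyl oxonol membrane-potential dye plus CaCC blockers. Chloride transport triggered in chloride-free buffer with 10 μM forskolin, 100 μM IBMX, 300 nM Compound III; fluorescence read 15 min, expressed as % of triple-corrector/potentiator combination control.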

T1 sequence (P13569 with tags, fused parts or gaps DEL508-508): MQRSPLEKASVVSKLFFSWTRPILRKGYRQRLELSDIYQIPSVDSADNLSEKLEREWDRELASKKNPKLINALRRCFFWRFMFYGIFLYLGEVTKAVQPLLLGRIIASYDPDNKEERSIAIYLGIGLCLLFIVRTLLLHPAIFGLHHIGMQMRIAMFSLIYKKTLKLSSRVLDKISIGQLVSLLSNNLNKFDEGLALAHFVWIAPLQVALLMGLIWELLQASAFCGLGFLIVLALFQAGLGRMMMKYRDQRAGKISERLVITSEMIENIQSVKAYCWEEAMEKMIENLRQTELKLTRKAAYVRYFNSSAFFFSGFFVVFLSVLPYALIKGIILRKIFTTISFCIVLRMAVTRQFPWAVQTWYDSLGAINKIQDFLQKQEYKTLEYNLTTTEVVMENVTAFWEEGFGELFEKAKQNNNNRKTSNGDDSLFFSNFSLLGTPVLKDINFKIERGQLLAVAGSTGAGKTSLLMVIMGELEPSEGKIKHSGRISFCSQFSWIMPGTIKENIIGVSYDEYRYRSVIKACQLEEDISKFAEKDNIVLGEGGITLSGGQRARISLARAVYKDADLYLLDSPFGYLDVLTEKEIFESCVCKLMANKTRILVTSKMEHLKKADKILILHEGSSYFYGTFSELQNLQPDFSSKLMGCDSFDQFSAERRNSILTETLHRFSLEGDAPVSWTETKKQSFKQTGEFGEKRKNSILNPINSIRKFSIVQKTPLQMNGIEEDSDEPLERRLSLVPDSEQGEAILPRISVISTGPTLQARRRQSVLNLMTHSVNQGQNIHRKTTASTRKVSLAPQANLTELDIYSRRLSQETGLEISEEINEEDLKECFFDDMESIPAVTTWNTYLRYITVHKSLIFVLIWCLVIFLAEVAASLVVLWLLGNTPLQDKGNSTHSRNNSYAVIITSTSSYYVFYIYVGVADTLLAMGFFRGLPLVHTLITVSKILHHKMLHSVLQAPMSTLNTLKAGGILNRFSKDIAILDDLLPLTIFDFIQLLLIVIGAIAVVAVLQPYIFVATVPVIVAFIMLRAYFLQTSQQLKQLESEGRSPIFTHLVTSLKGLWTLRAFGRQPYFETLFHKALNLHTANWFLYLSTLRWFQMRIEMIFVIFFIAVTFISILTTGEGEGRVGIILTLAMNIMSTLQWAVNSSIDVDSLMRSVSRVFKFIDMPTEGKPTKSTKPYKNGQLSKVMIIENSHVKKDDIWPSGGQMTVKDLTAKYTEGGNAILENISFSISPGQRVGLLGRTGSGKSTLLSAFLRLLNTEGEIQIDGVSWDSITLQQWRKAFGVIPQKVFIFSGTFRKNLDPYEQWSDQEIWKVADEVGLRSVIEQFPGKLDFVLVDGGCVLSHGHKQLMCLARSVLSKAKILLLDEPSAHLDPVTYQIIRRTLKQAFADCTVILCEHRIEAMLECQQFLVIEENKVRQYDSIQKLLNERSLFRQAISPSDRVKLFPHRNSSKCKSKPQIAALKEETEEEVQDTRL

Row | Ent. A Max Activity (%) [1] | EC50 [1] | Ent. B Max Activity (%) [2] | EC50 [2] | Compound
1 | +++ (+++ is >60%) | < 1000 nM | +++ (+++ is >60%) | < 1000 nM | CNC(=O)[C@H]1CC2(C1)C[C@H](N1C(=O)c3cccc(c3)S(=O)(=O)Nc3nc(cc(-c4c(C)cccc4C)n3)OC[C@H]1CC(C)C)C2 (stereo in doubt) [Compound 346]
2 | ++ (++ is 30-60%) | < 1000 nM | + (+ is <300%) | < 1000 nM | Cc1cccc(C)c1-c1cc2nc(n1)NS(=O)(=O)c1cccc(c1)C(=O)N(C1CC3(CC3)C1)[C@@H](CC(C)C)CO2 [Compound 474, (11S)-6-(2,6-Dimethylphenyl)-11-isobutyl-2,2-dioxo-12-spiro[2.3]hexan-5-yl-9-oxa-2λ^6-thia-3,5,12,19-tetrazatricyclo[12.3.1.14,8]nonadeca-1(18),4(19),5,7,14,16-hexaen-13-one]
3 | +++ (+++ is >60%) | < 1000 nM | +++ (+++ is >60%) | < 1000 nM | COC(=O)N1CCCCC12CC(N1C(=O)c3cccc(c3)S(=O)(=O)Nc3nc(cc(-c4c(C)cccc4C)n3)OC[C@H]1CC(C)C)C2 (stereo partly drawn) [Compound 323]
4 | +++ (+++ is >60%) | < 1000 nM | +++ (+++ is >60%) | < 1000 nM | COC(=O)NC1CC2(C1)CC(N1C(=O)c3cccc(c3)S(=O)(=O)Nc3nc(cc(-c4c(C)cccc4C)n3)OC[C@H]1CC(C)C)C2 (stereo partly drawn) [Compound 326]

Continued, compound first:

Row | Compound | Ent. A Max Activity (%) [1] | EC50 [1] | Ent. B Max Activity (%) [2] | EC50 [2]
5 | Cc1cccc(C)c1-c1cc2nc(n1)NS(=O)(=O)c1cccc(c1)C(=O)N(C1CC3(CCN(CCF)CC3)C1)[C@H](CC(C)C)CO2 [Compound 321] | +++ (+++ is >60%) | < 1000 nM | +++ (+++ is >60%) | < 1000 nM
6 | Cc1cccc(C)c1-c1cc2nc(n1)NS(=O)(=O)c1cccc(c1)C(=O)N(C1CN(C(=O)OC(C)(C)C)C1)[C@H](CC(C)C)CO2 [Compound 334] | +++ (+++ is >60%) | < 1000 nM | ++ (++ is 30-60%) | < 1000 nM
7 | COCCN1CCC2(CC1)CC(N1C(=O)c3cccc(c3)S(=O)(=O)Nc3nc(cc(-c4c(C)cccc4C)n3)OC[C@H]1CC(C)C)C2 [Compound 22, (11R)-6-(2,6-dimethylphenyl)-11-isobutyl-12-[7-(2-methoxyethyl)-7-azaspiro[3.5]nonan-2-yl]-2,2-dioxo-9-oxa-2λ^6-thia-3,5,12,19-tetrazatricyclo[12.3.1.14,8]nonadeca-1(18),4(19),5,7,14,16-hexaen-13-one] | +++ (+++ is >60%) | < 1000 nM | +++ (+++ is >60%) | < 1000 nM
8 | Cc1cccc(C)c1-c1cc2nc(n1)NS(=O)(=O)c1cccc(c1)C(=O)N([C@H]1CC3(C[C@H](C(=O)N(C)C)C3)C1)[C@H](CC(C)C)CO2 (stereo partly drawn) [Compound 343] | +++ (+++ is >60%) | < 1000 nM | +++ (+++ is >60%) | < 1000 nM
9 | Cc1cccc(C)c1-c1cc2nc(n1)NS(=O)(=O)c1cccc(c1)C(=O)N(C1CC3(CCNCC3)C1)[C@H](CC(C)C)CO2 [Compound 14, (11R)-12-(7-Azaspiro[3.5]nonan-2-yl)-6-(2,6-dimethylphenyl)-11-isobutyl-2,2-dioxo-9-oxa-2λ^6-thia-3,5,12,19-tetrazatricyclo[12.3.1.14,8]nonadeca-1(18),4(19),5,7,14,16-hexaen-13-one] | +++ (+++ is >60%) | 3000 to 30000 nM | +++ (+++ is >60%) | < 1000 nM
